Experimental findings from US9422235B2, “Sulfonamide derivatives with therapeutic indications” (Pharmos Corporation, priority 2006, dated 2016) are described below.

Assay [1] has as its target human CB2 receptor (Homo sapiens (Human), UniProt P34972). Nature of the assay: [35S]GTPγS-binding assay, functional activity at the human CB2 receptor. The format is biochemical. Here is the method: Functional activity of compounds of the invention toward the cannabinoid receptors was determined by stimulation of [^35S]-GTPγS binding using membranes from HEK-293 cells expressing the hCB1 receptor and membranes expressing the hCB2 receptor derived from either Sf9 (PerkinElmer) or from HEK-293 cells. Activities were compared to that of the known cannabinoid full agonist CP55940 (Alexis). The purpose of this experiment is to determine the potency of the compounds of the invention as agonists or antagonists toward each of the receptor tested.
[^35]-GTPγS binding reactions were performed at 30° C. in 96-well plates containing 5-10 μg membrane protein suspended in 0.1 ml binding buffer (20 mM HEPES-NaOH, pH 7.4, 5 mM MgCl2, 100 mM NaCt, 0.2% (w/v) bovine serum albumin) supplemented with 50 μM GDP and 0.06 nM-10 μM of the compound being tested. Binding was initiated by the addition of [^35S]GTPγS (0.3 nM final concentration). Incubations were performed for 90 minutes and were terminated by filtration on GF/C filter plates (PerkinElmer). Filters were washed ten times with ice-cold wash buffer (20 mM HEPES-NaOH, pH 7.4, 10 mM sodium pyrophosphate). Non-specific binding was measured in the presence of 15 μM GTPγS.
Assays were performed in duplicates. Data was analyzed by plotting on the X axis the log concentration against percent of specific [^35S]GTPγS binding out of basal [^35S]GTPγS binding on the Y axis, non-linear regression is then performed using GraphPad Prism, version 3.0 (GraphPad, San Diego, Calif.) to calculate the EC50 and Emax of the compound. The EC50 value represents the concentration at which there is 50% [^35S]GTPγS binding and the Emax value the upper plateau of the curve.
CP55940 is a full agonist of the human and rat CB2 receptors. […] Full or partial agonism at the receptor was determined relative to the Emax value of CP55940.
(GTPγS is a poorly hydrolysed GTP analogue; its binding reports G protein activation.)

In assay [2] the test system is Male Sprague Dawley rats. Nature of the assay: Chronic inflammatory pain, intra-articular CFA in knee, weight bearing. Type of assay: in vivo, rat.
Setting [3] is: read-out: % Activity (relative to CP55,940).
The mark [4] stands for this setting: Cell line C2-4, Emax of compound divided by Emax of CP55940, read-out: % Activity (relative to CP55,940).
Setting [5] is: Cell line C2-4, upper plateau of [35S]GTPγS binding curve, read-out: Emax (%).
The mark [6] stands for this setting: Cell line C2-4, upper plateau of [35S]GTPγS binding curve.

The structures appear in SMILES notation. Read-outs that look alike come from different tables or passages of the source.

Sequence of human CB2 receptor (P34972 whole entry): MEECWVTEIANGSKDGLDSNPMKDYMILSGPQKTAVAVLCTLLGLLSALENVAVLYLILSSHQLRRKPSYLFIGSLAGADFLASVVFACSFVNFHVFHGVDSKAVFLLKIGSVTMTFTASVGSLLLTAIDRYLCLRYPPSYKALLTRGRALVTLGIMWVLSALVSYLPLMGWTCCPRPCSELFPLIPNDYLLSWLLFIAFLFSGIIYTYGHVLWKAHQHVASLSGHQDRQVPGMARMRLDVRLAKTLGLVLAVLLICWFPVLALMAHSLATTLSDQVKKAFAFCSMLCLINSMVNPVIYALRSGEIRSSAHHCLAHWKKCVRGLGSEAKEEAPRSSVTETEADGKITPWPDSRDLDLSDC

In assay [1], `CCCCCCC(C)(C)c1ccc([C@@H]2C[C@H](O)CC[C@H]2CCCO)c(O)c1` [CP55940, reference compound] registered an Emax of 50 to 70%.
Consider `O=S(=O)(NCC1CC1)c1ccc(Nc2ccc(Cl)cc2Cl)cc1C(F)(F)F` [Compound 3, N-Cyclopropylmethyl-4-(2,4-dichloro-phenylamino)-2-trifluoromethyl-benzenesulfonamide], for which the Emax stood at 30% in assay [1] and 46% in assay [1] (setting [3]).
Turning to `O=S(=O)(NCC1CCCO1)c1ccc(NC2CC3CCC2C3)cc1C(F)(F)F` (centres unmarked) [Compound 26, 4-(Bicyclo[2.2.1]hept-2-ylamino)-N-(tetrahydro-furan-2-ylmethyl)-2-trifluoromethyl-benzenesulfonamide], the Emax in assay [1] (setting [4]) was found to be 35%; in assay [1] (setting [5]) it was 19%.
Consider `O=S(=O)(NCC1CCOCC1)c1ccc(Nc2ccc(Cl)cc2Cl)cc1C(F)(F)F` [Compound 35, 4-(2,4-Dichloro-phenylamino)-N-(tetrahydro-pyran-4-ylmethyl)-2-trifluoromethyl-benzenesulfonamide], for which, in assay [2] (15 mg/kg, b.i.d, three days of administration), the “reversal of the CFA induced hypersensitivity (weight bearing)” value is “significant reversal”. Moreover, the Emax in assay [1] was 19%; in assay [1] (setting [3]) it was 35%.
`O=S(=O)(NCC1CCOCC1)c1ccc(NC2CC3CCC2C3)cc1C(F)(F)F` (centres unmarked) [Compound 41, 4-(Bicyclo[2.2.1]hept-2-ylamino)-N-(tetrahydro-pyran-4-ylmethyl)-2-trifluoromethyl-benzenesulfonamide]: in assay [2] (15 mg/kg b.i.d., day 1 and 2 post administration), the “analgesic effect (% reversal)” value is on record as 30%. Also, the Emax in assay [1] (setting [4]) turned out to be 36%; in assay [1] (setting [5]) it was 26%.
In the case of `COc1ccc(Nc2ccc(S(=O)(=O)NCC3CC3)c(C(F)(F)F)c2)c(OC)c1` [Compound 44, N-cyclopropylmethyl-4-(2,4-dimethoxy-phenylamino)-2-trifluoromethyl-benzenesulfonamide], the results for the Emax in assay [1] and in assay [1] (setting [3]) were 5% and 9.8%, respectively.
With `CC(C)(NS(=O)(=O)c1ccc(NC2CC3CCC2C3)cc1C(F)(F)F)C1CC1` (centres unmarked) [Compound 74, 4-(Bicyclo[2.2.1]hept-2-ylamino)-N-(1-cyclopropyl-1-methyl-ethyl)-2-trifluoromethyl-benzenesulfonamide], the Emax in assay [1] turned out to be 30%; in assay [1] (setting [3]), 45%.
The corresponding values for `O=S(=O)(NCC1CC1)c1ccc(NC2CCCCCC2)cc1C(F)(F)F` [Compound 87, 4-Cycloheptylamino-N-cyclopropylmethyl-2-trifluoromethyl-benzenesulfonamide] are 21% and 29%.
Regarding `O=S(=O)(NCC1CC1)c1ccc(NC2CCCCCCC2)cc1C(F)(F)F` [Compound 88, 4-Cyclooctylamino-N-cyclopropylmethyl-2-trifluoromethyl-benzenesulfonamide], in assay [1] (setting [4]), the Emax amounted to 9.8%. Further, the “Emax (%)” value in assay [1] (setting [6]) is 5%.
With `O=S(=O)(NCC1CC1)c1ccc(NN2CCCCCC2)cc1C(F)(F)F` [Compound 105, 4-(Azepan-1-ylamino)-N-cyclopropylmethyl-2-trifluoromethyl-benzenesulfonamide], the Emax in assay [1] stood at 34%; in assay [1] (setting [3]), 43%.
As for `CC(C)(NS(=O)(=O)c1ccc(NC2CCCCC2)cc1C(F)(F)F)C1CC1` [Compound 108, 4-Cyclohexylamino-N-(1-cyclopropyl-1-methyl-ethyl)-2-trifluoromethyl-benzenesulfonamide], the Emax in assay [1] (setting [4]) turned out to be 49.3%. Also, the “Emax (%)” value in assay [1] (setting [6]) was found to be 39%.
